Assay: Pharmacokinetics after oral capsules (sCT plus Dmt-DALDA with citric acid and lauroyl carnitine), non-enteric coated or enteric coated, in fasted beagle dogs (plasma; ELISA for sCT, HPLC-MS for Dmt-DALDA)
Type: in vivo
Protocol: A second series of tests was carried out, as noted above, using beagle dogs. […] In the experiments represented in FIGS. 2A and 2B, size 00 […] capsules were each filled with 758 mg of a powdered blend consisting of citric acid (643 mg), lauroyl carnitine (66 mg), talc (33 mg), salmon calcitonin (sCT) (13 mg) and Dmt-DALDA (2.4 mg). Half of the capsules were coated with an enteric coating solution of L30D-55, while the remaining 50% of the capsules were not coated. Four fasted dogs were each given 1 uncoated capsule, and 2 weeks later they were each given an enteric coated capsule. After administration of each capsule, samples of blood were taken at 15 minute intervals from an indwelling catheter for up to 4 hours. The blood samples were centrifuged and the resulting plasma supernatants were stored frozen at −20° C. The plasma samples were subsequently analyzed for sCT by a direct ELISA, and for Dmt-DALDA by HPLC-mass spectrometry performed as set forth in Wan, H. and Desiderio, D., Quantitation of [DMT^1] DALDA in ovine plasma by on-line liquid chromatography/quadrapole time-of-flight mass spectrometry, Rapid Communications in Mass Spectrometry, 2003; 17, 538-546, the contents of which are incorporated herein by reference.
The results summarized in FIGS. 2A and 2B as plasma peptide concentration normalized to a 1 mg dose as a function of time relative to the average Tmax, (i.e., the time at which the maximum amount of peptide was detected) indicate that both peptides, i.e., sCT and Dmt-DALDA, were detected in dogs given uncoated or enteric coated capsules. […] Table DI (below) sets forth the values upon which the curves in FIGS. 2A and 2B are based. The results are summarized in the tables as plasma peptide concentration normalized to a 1 mg dose as a function of time. Table III, moreover, provides the standard deviations for the data obtained regarding each of the test dogs, which standard deviations are also indicated in FIGS. 2A and 2B.
Table IV (below) summarizes the pharmacokinetic parameters in dogs of orally administered sCT and Dmt-DALDA when administered in non-enteric coated versus enteric coated capsules. Peptide was not detected from 1 dog in each group due to (a) Dog 3 vomiting the uncoated capsule and (b) delayed gastric emptying in Dog 2 provided with an enteric coated capsule. Cmax and AUC are as defined with regard to Table H above.

## Cc1cc(O)cc(C)c1C[C@H](N)C(=O)N[C@H](CCCNC(=N)N)C(=O)N[C@@H](Cc1ccccc1)C(=O)N[C@@H](CCCCN)C(N)=O [Dmt-DALDA, H-2,6-dimethyltyrosine-D-Arginine-Phenylalanine-Lysine-NH2]
Enteric coated capsule, Dog 3, 45 min
  plasma peptide concentration normalized to a 1 mg dose: 0 pg/mL
Enteric coated capsule, Dog 3, 60 min
  plasma peptide concentration normalized to a 1 mg dose: 0 pg/mL
Enteric coated capsule, Dog 3, 75 min
  plasma peptide concentration normalized to a 1 mg dose: 0 pg/mL
Enteric coated capsule, Dog 3, 90 min
  plasma peptide concentration normalized to a 1 mg dose: 0 pg/mL
Enteric coated capsule, Dog 3, 105 min
  plasma peptide concentration normalized to a 1 mg dose: 0 pg/mL
Enteric coated capsule, Dog 3, 120 min
  plasma peptide concentration normalized to a 1 mg dose: 0 pg/mL
Enteric coated capsule, Dog 3, 135 min
  plasma peptide concentration normalized to a 1 mg dose: 21494 pg/mL
Enteric coated capsule, Dog 3, 150 min
  plasma peptide concentration normalized to a 1 mg dose: 19378 pg/mL
Enteric coated capsule, Dog 3, 165 min
  plasma peptide concentration normalized to a 1 mg dose: 12697 pg/mL
Enteric coated capsule, Dog 3, 180 min
  plasma peptide concentration normalized to a 1 mg dose: 9100 pg/mL
Enteric coated capsule, Dog 3, 195 min
  plasma peptide concentration normalized to a 1 mg dose: 4876 pg/mL
Enteric coated capsule, Dog 4, 0 min
  plasma peptide concentration normalized to a 1 mg dose: 0 pg/mL
Enteric coated capsule, Dog 4, 15 min
  plasma peptide concentration normalized to a 1 mg dose: 0 pg/mL
Enteric coated capsule, Dog 4, 30 min
  plasma peptide concentration normalized to a 1 mg dose: 0 pg/mL
Enteric coated capsule, Dog 4, 45 min
  plasma peptide concentration normalized to a 1 mg dose: 0 pg/mL
Enteric coated capsule, Dog 4, 60 min
  plasma peptide concentration normalized to a 1 mg dose: 0 pg/mL
Enteric coated capsule, Dog 4, 75 min
  plasma peptide concentration normalized to a 1 mg dose: 0 pg/mL
Enteric coated capsule, Dog 4, 90 min
  plasma peptide concentration normalized to a 1 mg dose: 0 pg/mL
Enteric coated capsule, Dog 4, 105 min
  plasma peptide concentration normalized to a 1 mg dose: 4577 pg/mL
Enteric coated capsule, Dog 4, 120 min
  plasma peptide concentration normalized to a 1 mg dose: 12116 pg/mL
Enteric coated capsule, Dog 4, 135 min
  plasma peptide concentration normalized to a 1 mg dose: 10207 pg/mL
Enteric coated capsule, Dog 4, 150 min
  plasma peptide concentration normalized to a 1 mg dose: 6307 pg/mL
Enteric coated capsule, Dog 4, 165 min
  plasma peptide concentration normalized to a 1 mg dose: 5158 pg/mL
Enteric coated capsule, Dog 4, 180 min
  plasma peptide concentration normalized to a 1 mg dose: 3884 pg/mL
Enteric coated capsule, Dog 4, 195 min
  plasma peptide concentration normalized to a 1 mg dose: 2896 pg/mL
non-enteric coated capsule, Dog 1, 45 min
  plasma peptide concentration normalized to a 1 mg dose: 5104 pg/mL
non-enteric coated capsule, Dog 1, 60 min
  plasma peptide concentration normalized to a 1 mg dose: 4066 pg/mL
non-enteric coated capsule, Dog 1, 75 min
  plasma peptide concentration normalized to a 1 mg dose: 2407 pg/mL
non-enteric coated capsule, Dog 1, 90 min
  plasma peptide concentration normalized to a 1 mg dose: 2780 pg/mL
non-enteric coated capsule, Dog 1, 105 min
  plasma peptide concentration normalized to a 1 mg dose: 1938 pg/mL
non-enteric coated capsule, Dog 1, 120 min
  plasma peptide concentration normalized to a 1 mg dose: 1627 pg/mL
non-enteric coated capsule, Dog 1, 135 min
  plasma peptide concentration normalized to a 1 mg dose: 1158 pg/mL
non-enteric coated capsule, Dog 1, 150 min
  plasma peptide concentration normalized to a 1 mg dose: 830 pg/mL
non-enteric coated capsule, Dog 1, 165 min
  plasma peptide concentration normalized to a 1 mg dose: 913 pg/mL
non-enteric coated capsule, Dog 1, 180 min
  plasma peptide concentration normalized to a 1 mg dose: 705 pg/mL
non-enteric coated capsule, Dog 1, 195 min
  plasma peptide concentration normalized to a 1 mg dose: 581 pg/mL
non-enteric coated capsule, Dog 1, 210 min
  plasma peptide concentration normalized to a 1 mg dose: 544 pg/mL
non-enteric coated capsule, Dog 1, 225 min
  plasma peptide concentration normalized to a 1 mg dose: 436 pg/mL
non-enteric coated capsule, Dog 1, 240 min
  plasma peptide concentration normalized to a 1 mg dose: 402 pg/mL
non-enteric coated capsule, Dog 2, 45 min
  plasma peptide concentration normalized to a 1 mg dose: 5602 pg/mL
non-enteric coated capsule, Dog 2, 60 min
  plasma peptide concentration normalized to a 1 mg dose: 5726 pg/mL
non-enteric coated capsule, Dog 2, 75 min
  plasma peptide concentration normalized to a 1 mg dose: 4523 pg/mL
non-enteric coated capsule, Dog 2, 90 min
  plasma peptide concentration normalized to a 1 mg dose: 3568 pg/mL
non-enteric coated capsule, Dog 2, 105 min
  plasma peptide concentration normalized to a 1 mg dose: 3444 pg/mL
non-enteric coated capsule, Dog 2, 120 min
  plasma peptide concentration normalized to a 1 mg dose: 2614 pg/mL
non-enteric coated capsule, Dog 2, 135 min
  plasma peptide concentration normalized to a 1 mg dose: 2697 pg/mL
non-enteric coated capsule, Dog 2, 150 min
  plasma peptide concentration normalized to a 1 mg dose: 2407 pg/mL
non-enteric coated capsule, Dog 2, 165 min
  plasma peptide concentration normalized to a 1 mg dose: 2531 pg/mL
non-enteric coated capsule, Dog 2, 180 min
  plasma peptide concentration normalized to a 1 mg dose: 2075 pg/mL
non-enteric coated capsule, Dog 2, 195 min
  plasma peptide concentration normalized to a 1 mg dose: 1328 pg/mL
non-enteric coated capsule, Dog 2, 210 min
  plasma peptide concentration normalized to a 1 mg dose: 1867 pg/mL
non-enteric coated capsule, Dog 2, 225 min
  plasma peptide concentration normalized to a 1 mg dose: 1535 pg/mL
non-enteric coated capsule, Dog 2, 240 min
  plasma peptide concentration normalized to a 1 mg dose: 1494 pg/mL
non-enteric coated capsule, Dog 4, 45 min
  plasma peptide concentration normalized to a 1 mg dose: 5788 pg/mL
non-enteric coated capsule, Dog 4, 60 min
  plasma peptide concentration normalized to a 1 mg dose: 4481 pg/mL
non-enteric coated capsule, Dog 4, 75 min
  plasma peptide concentration normalized to a 1 mg dose: 2934 pg/mL
non-enteric coated capsule, Dog 4, 90 min
  plasma peptide concentration normalized to a 1 mg dose: 2382 pg/mL
non-enteric coated capsule, Dog 4, 105 min
  plasma peptide concentration normalized to a 1 mg dose: 3054 pg/mL
non-enteric coated capsule, Dog 4, 120 min
  plasma peptide concentration normalized to a 1 mg dose: 1759 pg/mL
non-enteric coated capsule, Dog 4, 135 min
  plasma peptide concentration normalized to a 1 mg dose: 1627 pg/mL
non-enteric coated capsule, Dog 4, 150 min
  plasma peptide concentration normalized to a 1 mg dose: 1544 pg/mL
non-enteric coated capsule, Dog 4, 165 min
  plasma peptide concentration normalized to a 1 mg dose: 1324 pg/mL
non-enteric coated capsule, Dog 4, 180 min
  plasma peptide concentration normalized to a 1 mg dose: 1191 pg/mL
non-enteric coated capsule, Dog 4, 195 min
  plasma peptide concentration normalized to a 1 mg dose: 851 pg/mL
non-enteric coated capsule, Dog 4, 210 min
  plasma peptide concentration normalized to a 1 mg dose: 722 pg/mL
non-enteric coated capsule, Dog 4, 225 min
  plasma peptide concentration normalized to a 1 mg dose: 672 pg/mL
non-enteric coated capsule, Dog 4, 240 min
  plasma peptide concentration normalized to a 1 mg dose: 556 pg/mL

Source: US8835377B2, “Oral delivery of peptide pharmaceutical compositions” (UGP Therapeutics, Inc., priority 2004, dated 2014)
